In patent publication US7745479B2, “1,5-substituted indol-2-yl amide derivatives” (Hoffmann-La Roche Inc., priority 2005, dated 2010):

Target: T1, histamine 3 receptor (H3R) (Homo sapiens, UniProt Q9Y5N1)
T1 construct: expressed in transfected cells; host or cells: CHO cells (HR3-CHO cell line), membrane preparation
Assay: Competition binding assay with 3H-(R)α-methylhistamine on membranes of the human HR3-CHO cell line
Conditions: competition with 3H(R)α-Methylhistamine (1 nM), Ki calculated from IC50 by Cheng-Prusoff equation
Procedure: Binding Assay with ^3H-(R)α-methylhistamine
Saturation binding experiments were performed using HR3-CHO membranes prepared as described in Takahashi, K, Tokita, S., Kotani, H. (2003) J. Pharmacol. Exp. Therapeutics 307, 213-218.
An appropriate amount of membrane (60 to 80 μg protein/well) was incubated with increasing concentrations of ^3H(R)α-Methylhistamine di-hydrochloride (0.10 to 10 nM). Non specific binding was determined using a 200 fold excess of cold (R)α-Methylhistamine dihydrobromide (500 nM final concentration). The incubation was carried out at room temperature (in deep-well plates shaking for three hours). The final volume in each well was 250 μl. […] After harvesting, the plates were dried at 55° C. for 60 min, then scintillation fluid (Microscint 40, 40 microl in each well) was added and the amount of radioactivity on the filter was determined with a Packard top-counter after shaking the plates for two hours at 200 rpm at room temperature. • Binding Buffer: 50 mM Tris-HCl pH 7.4 and 5 mM MgCl2x6H2O pH 7.4. […]
An appropriate amount of protein, e.g. approximately 500 cpm binding of RAMH at Kd, were incubated for 1 hour at room temperature in 250 μl final volume in 96-well plates in presence of ^3H(R)α-Methylhistamine (1 nM final concentration=Kd). Non-specific binding was determined using a 200 fold excess of cold (R)α-Methylhistamine dihydrobromide. […]

T1 sequence (Q9Y5N1 whole entry): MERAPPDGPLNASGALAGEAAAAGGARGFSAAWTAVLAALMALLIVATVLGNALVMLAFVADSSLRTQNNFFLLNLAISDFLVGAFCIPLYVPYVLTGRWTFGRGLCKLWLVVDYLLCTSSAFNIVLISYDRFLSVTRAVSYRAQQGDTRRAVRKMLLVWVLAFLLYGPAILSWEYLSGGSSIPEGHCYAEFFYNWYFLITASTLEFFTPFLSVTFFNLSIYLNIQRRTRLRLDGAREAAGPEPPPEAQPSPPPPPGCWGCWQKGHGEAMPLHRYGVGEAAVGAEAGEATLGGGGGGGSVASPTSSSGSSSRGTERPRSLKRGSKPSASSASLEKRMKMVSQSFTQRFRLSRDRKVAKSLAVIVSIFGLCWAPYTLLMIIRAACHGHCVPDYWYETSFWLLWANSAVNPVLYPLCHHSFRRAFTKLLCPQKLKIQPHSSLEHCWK

Ki: 2 nM
Compound: CC(C)N1CCC(Oc2ccc3c(c2)cc(C(=O)N2CCC(F)(F)CC2)n3-c2ccnc(Cl)c2)CC1 [Example 9, [1-(2-Chloro-pyridin-4-yl)-5-(1-isopropyl-piperidin-4-yloxy)-1H-indol-2-yl]-(4,4-difluoro-piperidin-1-yl)-methanone]
